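Cultured in 96-well plates, cells were exposed to test compound for 48 hours across five concentrations. Abbreviation: GI50, concentration required for 50% inhibition of growth.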 The source made the active and inactive calls. No stated cut-off is given here; in the data, active = GI50 up to about 1.1 µM and inactive = higher.
Legend:
Assay in all cases: inhibition of tumour cell growth, NCI panel, 48 h
HCC 2998 = tested on: HCC 2998
LOX IMVI = tested on: LOX IMVI
HCT-116 = tested on: HCT-116
SK-MEL-28 = tested on: SK-MEL-28
SF-268 = tested on: SF-268
SR = tested on: SR
T47D = tested on: T47D
OVCAR-4 = tested on: OVCAR-4
786-0 = tested on: 786-0
NCI-H522 = tested on: NCI-H522
CCRF-CEM = tested on: CCRF-CEM
OVCAR-8 = tested on: OVCAR-8
Hs-578T = tested on: Hs-578T
ACHN = tested on: ACHN
K562 = tested on: K562
KM12 = tested on: KM12
A498 = tested on: A498
SNB-75 = tested on: SNB-75
OVCAR-5 = tested on: OVCAR-5
EKVX = tested on: EKVX
NCI-H460 = tested on: NCI-H460
NCI-H226 = tested on: NCI-H226
MOLT-4 = tested on: MOLT-4
PC-3 = tested on: PC-3
UACC-62 = tested on: UACC-62
TK-10 = tested on: TK-10
COLO 205 = tested on: COLO 205
HOP-62 = tested on: HOP-62
UACC-257 = tested on: UACC-257
MDA-N = tested on: MDA-N
MDA-MB-231 = tested on: MDA-MB-231
RXF 393 = tested on: RXF 393
HT-29 = tested on: HT-29
SNB-19 = tested on: SNB-19
CAKI-1 = tested on: CAKI-1
UO-31 = tested on: UO-31
IGROV-1 = tested on: IGROV-1
RPMI-8226 = tested on: RPMI-8226
SK-OV-3 = tested on: SK-OV-3
MCF7 = tested on: MCF7
Malme-3M = tested on: Malme-3M
DU-145 = tested on: DU-145
U-251 = tested on: U-251
SW-620 = tested on: SW-620
NCI-H23 = tested on: NCI-H23
HOP-92 = tested on: HOP-92
MDA-MB-435 = tested on: MDA-MB-435
NCI/ADR-RES = tested on: NCI/ADR-RES
SF-295 = tested on: SF-295
HCT-15 = tested on: HCT-15
SN12C = tested on: SN12C
OVCAR-3 = tested on: OVCAR-3
SK-MEL-2 = tested on: SK-MEL-2
HL-60 = tested on: HL-60
M14 = tested on: M14
SK-MEL-5 = tested on: SK-MEL-5
BT-549 = tested on: BT-549

`O=C1CCc2ccccc2O1` [DIHYDROCOUMARIN] was tested, and the GI50 (HCC 2998) was > 100 µM (inactive), the GI50 (LOX IMVI) was > 100 µM (inactive) and the GI50 (HCT-116) was > 100 µM (inactive). For the same molecule, the GI50 (SK-MEL-28) was > 100 µM (inactive), the GI50 (SF-268) was > 100 µM (inactive) and the GI50 (SR) was > 100 µM (inactive). For the same molecule, the GI50 (T47D) was > 100 µM (inactive), the GI50 (OVCAR-4) was > 100 µM (inactive) and the GI50 (786-0) was > 100 µM (inactive). The GI50 (NCI-H522) was > 100 µM (inactive), the GI50 (CCRF-CEM) was > 100 µM (inactive) and the GI50 (OVCAR-8) was > 100 µM (inactive). For the same molecule, the GI50 (Hs-578T) was > 100 µM (inactive), the GI50 (ACHN) was > 100 µM (inactive) and the GI50 (K562) was > 100 µM (inactive). The GI50 (KM12) was > 100 µM (inactive), the GI50 (A498) was > 100 µM (inactive) and the GI50 (SNB-75) was > 100 µM (inactive). For the same molecule, the GI50 (OVCAR-5) was > 100 µM (inactive), the GI50 (EKVX) was > 100 µM (inactive) and the GI50 (NCI-H460) was > 100 µM (inactive). The GI50 (NCI-H226) was > 100 µM (inactive), the GI50 (MOLT-4) was > 100 µM (inactive) and the GI50 (PC-3) was > 100 µM (inactive). The GI50 (UACC-62) was > 100 µM (inactive), the GI50 (TK-10) was > 100 µM (inactive) and the GI50 (COLO 205) was > 100 µM (inactive). For the same molecule, the GI50 (HOP-62) was > 100 µM (inactive), the GI50 (UACC-257) was > 100 µM (inactive) and the GI50 (MDA-N) was 53.1 µM (inactive). The GI50 (MDA-MB-231) was > 100 µM (inactive), the GI50 (RXF 393) was > 100 µM (inactive) and the GI50 (HT-29) was > 100 µM (inactive). The GI50 (SNB-19) was > 100 µM (inactive), the GI50 (CAKI-1) was > 100 µM (inactive) and the GI50 (UO-31) was > 100 µM (inactive). For the same molecule, the GI50 (IGROV-1) was > 100 µM (inactive), the GI50 (RPMI-8226) was > 100 µM (inactive) and the GI50 (SK-OV-3) was > 100 µM (inactive). The GI50 (MCF7) was > 100 µM (inactive), the GI50 (Malme-3M) was > 100 µM (inactive) and the GI50 (DU-145) was > 100 µM (inactive). The GI50 (U-251) was > 100 µM (inactive), the GI50 (SW-620) was > 100 µM (inactive) and the GI50 (NCI-H23) was > 100 µM (inactive). For the same molecule, the GI50 (HOP-92) was > 100 µM (inactive), the GI50 (MDA-MB-435) was > 100 µM (inactive) and the GI50 (NCI/ADR-RES) was > 100 µM (inactive). For the same molecule, the GI50 (SF-295) was > 100 µM (inactive), the GI50 (HCT-15) was > 100 µM and the GI50 (SN12C) was > 100 µM (inactive). For the same molecule, the GI50 (OVCAR-3) was > 100 µM (inactive), the GI50 (SK-MEL-2) was > 100 µM (inactive) and the GI50 (HL-60) was > 100 µM (inactive).

`CO[C@@]12C[C@@H](C)C3=CCC(C)=C3CC1=C(C)C(=O)O2` was tested, and the GI50 (HCC 2998) was > 100 µM (inactive), the GI50 (M14) was > 100 µM (inactive) and the GI50 (LOX IMVI) was > 100 µM (inactive). For the same molecule, the GI50 (HCT-116) was > 100 µM (inactive), the GI50 (SK-MEL-28) was > 100 µM (inactive) and the GI50 (SF-268) was > 100 µM (inactive). The GI50 (SR) was 44.2 µM (inactive), the GI50 (OVCAR-4) was > 100 µM (inactive) and the GI50 (786-0) was > 100 µM (inactive). The GI50 (CCRF-CEM) was 50.8 µM (inactive), the GI50 (OVCAR-8) was > 100 µM (inactive) and the GI50 (Hs-578T) was > 100 µM (inactive). For the same molecule, the GI50 (ACHN) was > 100 µM (inactive), the GI50 (K562) was 53.3 µM (inactive) and the GI50 (KM12) was > 100 µM (inactive). For the same molecule, the GI50 (A498) was > 100 µM (inactive), the GI50 (SNB-75) was 63.4 µM (inactive) and the GI50 (OVCAR-5) was > 100 µM (inactive). The GI50 (EKVX) was > 100 µM (inactive), the GI50 (NCI-H460) was > 100 µM (inactive) and the GI50 (NCI-H226) was > 100 µM (inactive). The GI50 (MOLT-4) was 45.7 µM (inactive), the GI50 (SK-MEL-5) was > 100 µM (inactive) and the GI50 (PC-3) was 85.7 µM (inactive). For the same molecule, the GI50 (UACC-62) was > 100 µM (inactive), the GI50 (TK-10) was > 100 µM (inactive) and the GI50 (COLO 205) was > 100 µM (inactive). The GI50 (UACC-257) was > 100 µM (inactive), the GI50 (MDA-MB-231) was > 100 µM (inactive) and the GI50 (HT-29) was > 100 µM (inactive). For the same molecule, the GI50 (SNB-19) was > 100 µM (inactive), the GI50 (CAKI-1) was > 100 µM (inactive) and the GI50 (UO-31) was > 100 µM (inactive). The GI50 (IGROV-1) was > 100 µM (inactive), the GI50 (RPMI-8226) was 57.8 µM (inactive) and the GI50 (SK-OV-3) was 68.7 µM (inactive). For the same molecule, the GI50 (Malme-3M) was > 100 µM (inactive), the GI50 (U-251) was > 100 µM (inactive) and the GI50 (SW-620) was > 100 µM (inactive). For the same molecule, the GI50 (NCI-H23) was > 100 µM (inactive), the GI50 (HOP-92) was > 100 µM (inactive) and the GI50 (MDA-MB-435) was > 100 µM (inactive). The GI50 (NCI/ADR-RES) was > 100 µM (inactive), the GI50 (SF-295) was > 100 µM (inactive) and the GI50 (HCT-15) was > 100 µM. The GI50 (BT-549) was > 100 µM (inactive), the GI50 (OVCAR-3) was > 100 µM (inactive) and the GI50 (SK-MEL-2) was > 100 µM (inactive). For the same molecule, the GI50 (HL-60) was 50.8 µM (inactive).

With `O=P(O)(O)OC1C(OP(=O)(O)O)C(OP(=O)(O)O)C(OP(=O)(O)O)C(OP(=O)(O)O)C1OP(=O)(O)O` (configuration not stated) the GI50 (OVCAR-4) was > 875 µM (inactive), the GI50 (CCRF-CEM) was > 995 µM (inactive) and the GI50 (EKVX) was > 560 µM (inactive). The GI50 (HOP-92) was > 923 µM (inactive).
